From PMC11802874, “The hypolipidemic effect of MI-883, the combined CAR agonist/ PXR antagonist, in diet-induced hypercholesterolemia model” (Nature Communications, 2025)
Marks after values point to notes of the source that are not given here.

Assay: Pharmacokinetic study after single dose in C57BL/6N mice
Format: in vivo, mouse
Protocol: Pharmacokinetic study of MI-883 in C57BL/6N mice (9–10 weeks old, body weight 20.8 to 24.5 g and average body weight across all groups 22.7 g, SD = 1.1 g) were performed following peroral (p.o.) and intraperitoneal (i.p.) administrations. […] There was also a control group of 4 animals per route. The levels of the parent compound MI-883 were determined by LC-MS/MS in the blood plasma, brain, kidney, liver, muscle (Leg triceps), bile, small intestine, colon, and adipose tissues over time after a single dose of 10 mg/kg. Mice were injected i.p. with 2,2,2-tribromoethanol at a dose of 150 mg/kg prior to drawing the blood. Blood collection was performed from the orbital sinus in BD microtainers tubes containing K2EDTA. Animals were sacrificed by cervical dislocation after the blood samples collection. After this, samples of brain, kidney, liver, muscle (Leg triceps), small intestine, colon, and adipose tissue were collected. Bile samples were taken from the gallbladder of mice. Urine and feces samples were collected using metabolic cages over the course of 1440 min (24 h) after compound administration. All samples were immediately processed, flash-frozen, and stored at –70 °C until subsequent analysis. Detection of the presence of potential metabolites (2-chloro-5-((4-(2-(4-chlorophenyl)-7-fluoroimidazo[1,2-a]pyridin-3-yl)-1H-1,2,3-triazol-1-yl)methyl)-N-methylbenzamide or 2-(4-chlorophenyl)-7-fluoro-3-(1H-1,2,3-triazol-4-yl)imidazo[1,2-a]pyridine) in plasma and tissues was performed. MI-883 was applied in 5%DMSO – 5%PEG300 – 90%corn oil formulation with a final concentration of the compound, 2 mg/ml. Animal treatment and sample preparation were conducted by the Animal Laboratory personnel at Enamine/Bienta.
Plasma samples (50 μl) were mixed with 200 μl of IS400 solution. After mixing by pipetting and centrifuging for 4 min at 6000 rpm, 2 μl of each supernatant was injected into the LC-MS/MS system. Solution of compound IS-19851 (400 ng/ml in acetonitrile-methanol mixture 1:1, v/v) was used as internal standard (IS400) for quantification of MI-883 in blood plasma, liver, kidney, muscle (Leg triceps), small intestine, and colon samples. Liver, kidney, muscle (Leg triceps), colon, and small intestine samples (weight 100 mg ±1 mg) were disintegrated in 500 μl of IS400 using zirconium oxide beads (120 mg ± 5 mg) in The Bullet Blender® homogenizer for 1–3 min at speed 8–12. After this, the samples were centrifuged for 3 min at 14,000 rpm, and 1 μl of each supernatant was injected into the LC-MS/MS system.
Brain and adipose tissue samples (weight 100 mg ± 1 mg) were dispersed in 500 μl of IS400(80) using zirconium oxide beads (120 mg ± 5 mg) in The Bullet Blender® homogenizer for 30 s at speed 8. After this, the samples were centrifuged for 4 min at 14,000 rpm, and 1 μl of each supernatant was injected into the LC-MS/MS system. Solution of compound IS-19851 (400 ng/ml in water-acetonitrile-methanol mixture, 2:4:4, v/v/v) was used as internal standard (IS400(80)) for quantification of MI-883 in the brain, adipose tissue, urine, and bile samples. Urine (cumulative) and bile samples were mixed with IS400(80) solution (1:20, v/v). After mixing by pipetting and centrifuging for 4 min at 6000 rpm, 0.5 μl of each supernatant was injected into the LC-MS/MS system. Cumulative feces samples (114 mg–249 mg) were transferred to BMT-20-S tubes with 4 stainless steel balls, mixed with 20 volumes of IS400(80) solution, and dispersed using ULTRA-TURRAX Tube Drive for 1 min at 3000 rpm within the 30 min thrice. After dispersing and centrifuging for 2 min at 14,000 rpm, 0.5 μl of each supernatant was injected into the LC-MS/MS system.
The concentration of MI-883 in plasma and tissues was determined using a high-performance liquid chromatography/tandem mass spectrometry (HPLC-MS/MS) method. […]

[1] = male, C57BL/6N, mouse, ip, Liver, 10 mg/kg

NC(=O)c1cc(Cn2cc(-c3c(-c4ccc(Cl)cc4)nc4cc(F)ccn34)nn2)ccc1Cl [MI-883, 2-chloro-5-((4-(2-(4-chlorophenyl)-7-fluoroimidazo[1,2-a]pyridin-3-yl)-1H-1,2,3-triazol-1-yl)methyl)benzamide]
expected metabolites (N-methyl, N-dimethyl benzamide, triazolyl-imidazopyridine) in plasma and tissues (10 mg/kg p.o. and i.p.): No expected metabolites
route of excretion (10 mg/kg, C57BL/6N mice): excreted mainly via bile
tissue distribution (10 mg/kg, C57BL/6N mice): significantly distributed into the liver, but not the brain
Peroral bioavailability (%, p.o. vs. i.p.) (estimation based on comparison of AUCs after p.o. and i.p. application, 10 mg/kg): 98.6* %
PK of MI-883: MI-883 i.p. adipose tis. (i.p., time 10): 2064
PK of MI-883: MI-883 i.p. adipose tis. (i.p., time 120): 2083
PK of MI-883: MI-883 i.p. adipose tis. (i.p., time 240): 2267
PK of MI-883: MI-883 i.p. adipose tis. (i.p., time 480): 1643
PK of MI-883: MI-883 i.p. adipose tis. (i.p., time 720): 651
PK of MI-883: MI-883 i.p. bile (i.p., time 10): 347
PK of MI-883: MI-883 i.p. bile (i.p., time 120): 5663
PK of MI-883: MI-883 i.p. bile (i.p., time 240): 6712
PK of MI-883: MI-883 i.p. bile (i.p., time 480): 17332
PK of MI-883: MI-883 i.p. bile (i.p., time 720): 20058
PK of MI-883: MI-883 i.p. brain (i.p., time 10): 20
PK of MI-883: MI-883 i.p. brain (i.p., time 120): 88
PK of MI-883: MI-883 i.p. brain (i.p., time 240): 86
PK of MI-883: MI-883 i.p. brain (i.p., time 480): 62
PK of MI-883: MI-883 i.p. brain (i.p., time 720): 33
PK of MI-883: MI-883 i.p. colon (i.p., time 10): 7473
PK of MI-883: MI-883 i.p. colon (i.p., time 120): 3182
PK of MI-883: MI-883 i.p. colon (i.p., time 240): 3492
PK of MI-883: MI-883 i.p. colon (i.p., time 480): 1531
PK of MI-883: MI-883 i.p. colon (i.p., time 720): 1717
PK of MI-883: MI-883 i.p. feces (i.p., feces, time 1440): 689 ng
PK of MI-883: MI-883 i.p. kidney (i.p., time 10): 1650
PK of MI-883: MI-883 i.p. kidney (i.p., time 120): 4299
PK of MI-883: MI-883 i.p. kidney (i.p., time 240): 6585
PK of MI-883: MI-883 i.p. kidney (i.p., time 480): 3365
PK of MI-883: MI-883 i.p. kidney (i.p., time 720): 1611
PK of MI-883: MI-883 i.p. kidney (i.p., time 1440): 11
PK of MI-883: MI-883 i.p. liver (i.p., time 10): 9584
PK of MI-883: MI-883 i.p. liver (i.p., time 120): 14064
PK of MI-883: MI-883 i.p. liver (i.p., time 240): 10374
PK of MI-883: MI-883 i.p. liver (i.p., time 480): 6478
PK of MI-883: MI-883 i.p. liver (i.p., time 720): 4261
PK of MI-883: MI-883 i.p. liver (i.p., time 1440): 24
PK of MI-883: MI-883 i.p. muscule (i.p., time 10): 114
PK of MI-883: MI-883 i.p. muscule (i.p., time 120): 913
PK of MI-883: MI-883 i.p. muscule (i.p., time 240): 720
PK of MI-883: MI-883 i.p. muscule (i.p., time 480): 687
PK of MI-883: MI-883 i.p. muscule (i.p., time 720): 320
PK of MI-883: MI-883 i.p. small intestine (i.p., time 10): 10141
PK of MI-883: MI-883 i.p. small intestine (i.p., time 120): 7374
PK of MI-883: MI-883 i.p. small intestine (i.p., time 240): 4886
PK of MI-883: MI-883 i.p. small intestine (i.p., time 480): 1858
PK of MI-883: MI-883 i.p. small intestine (i.p., time 720): 873
PK of MI-883: MI-883 i.p (i.p., time 10): 565
PK of MI-883: MI-883 i.p (i.p., time 120): 5532
PK of MI-883: MI-883 i.p (i.p., time 240): 3130
PK of MI-883: MI-883 i.p (i.p., time 480): 2314
PK of MI-883: MI-883 i.p (i.p., time 720): 1008
PK of MI-883: MI-883 i.p (i.p., time 1440): 1
Cmax [1]: 14100 ng/mL
Tmax [1]: 30 min
half-life [1]: 152 min
Cmax (male, C57BL/6N, mouse, ip, Plasma, 10 mg/kg): 5530 ng/mL
Vd (male, C57BL/6N, mouse, plasma, 10 mg/kg, calculated from data after a single dose application, read-out: volume of distribution (Vd) in mice): 0.06 L
Cmax (male, C57BL/6N, mouse, po, Liver, 10 mg/kg): 14900 ng/mL
